Entries after “also recorded” stand apart in the source; their conditions may differ. Bridge positions count the residues as written; N and C are the ends. Ends that are not written are not given here. Peptide text beside a SMILES is read from it.
What was measured:
[1] = target: T1, rASIC1a (Rattus norvegicus, UniProt P55926); experiment: Two-electrode voltage clamp (TEVC) on Xenopus laevis oocytes expressing homomeric rASIC1a; format: cell-based; settings: for Extent of inhibition of ASIC1a currents (full or incomplete): at saturating concentrations; for Reversibility of inhibition (in words) / Rapidly reversible inhibition: upon washout; for Rapidly reversible inhibition: Table 1; for % Residual Current: current remaining at saturating peptide concentrations; for Potency compared to wild-type Hi1a (in words): point mutants
T1 construct: expressed in transfected cells; host or cells: Xenopus laevis oocytes injected with cRNA
T1 sequence (P55926 1-526): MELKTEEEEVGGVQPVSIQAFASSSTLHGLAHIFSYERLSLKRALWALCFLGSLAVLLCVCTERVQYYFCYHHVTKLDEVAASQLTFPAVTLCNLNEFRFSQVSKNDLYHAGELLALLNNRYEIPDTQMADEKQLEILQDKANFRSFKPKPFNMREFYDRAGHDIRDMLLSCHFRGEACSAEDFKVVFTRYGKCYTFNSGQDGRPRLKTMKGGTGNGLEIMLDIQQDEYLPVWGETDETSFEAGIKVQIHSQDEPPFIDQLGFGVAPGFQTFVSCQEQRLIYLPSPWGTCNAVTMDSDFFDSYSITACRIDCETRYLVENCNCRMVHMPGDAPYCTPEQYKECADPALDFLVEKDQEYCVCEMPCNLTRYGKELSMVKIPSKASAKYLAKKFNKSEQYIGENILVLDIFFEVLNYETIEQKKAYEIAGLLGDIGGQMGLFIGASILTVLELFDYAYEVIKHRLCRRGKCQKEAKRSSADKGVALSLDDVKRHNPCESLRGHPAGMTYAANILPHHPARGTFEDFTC
Method: The ability of the peptides of the invention to modulate ASIC currents was assessed using two-electrode voltage clamp (TEVC) electrophysiology experiments performed on Xenopus laevis oocytes expressing homomeric ASIC channels. Xenopus oocytes are widely used as an expression system for functional characterisation of ion channel modulators. TEVC allows measurement of whole-cell ion channel currents while controlling the membrane potential.
Oocytes were harvested from anaesthetised female X. laevis then defolliculated by treatment with collagenase (Sigma, type I). Oocytes were injected with in vitro transcribed ASIC cRNA (capped RNA). Oocytes were kept at 17-18° C. in ND96 solution containing 96 mM NaCl, 2 mM KCl, 1.8 mM CaCl2, 2 mM MgCl2, 5 mM HEPES, 5 mM pyruvic acid, 50 μg/ml gentamicin (pH 7.4), and fetal horse serum (2.5%), and experiments were performed at room temperature (21-22° C.) 1-3 days after cRNA injection. Oocytes were clamped at −60 mV (Warner OC-725C oocyte clamp; Warner Instruments, CT, USA) using two standard glass microelectrodes of 0.5-2 MΩ resistance when filled with 3 M KCl. Data acquisition and analysis were performed using pCLAMP software, Version 10 (Axon Instruments, CA, USA). Currents were elicited by a drop in pH from 7.45 to 6.0 using a microperfusion system to allow rapid solution exchange. All experiments were performed using ND96 solution spiked with 0.1% BSA in order to minimise adsorption of peptides to plastic tubing.

[2] = system: ASIC1a; settings: McCarthy et al., 2015; cited from earlier work
[3] = system: spontaneously hypertensive rats (SHR); experiment: Focal reperfusion (endothelin-1) stroke model in conscious SHR, i.c.v. administration; format: in vivo, rat; settings: single i.c.v. dose two hours after stroke; Hi1a 2 ng/kg, PcTx1 and mutant 1 ng/kg; 72 h post-stroke
Method: The neuroprotective efficacy of Hi1a was assessed in a rat model of focal cerebral ischemia. In vivo experiments were conducted using a focal reperfusion model of stroke in conscious spontaneously hypertensive rats (SHR) as previously reported (McCarthy et al., Neuropharmacology 99, 650-657, 2015). Two 23-gauge stainless steel guide cannulae were stereotaxically implanted into anaesthetised animals (ketamine 75 mg/kg; xylazine 10 mg/kg; intraperitoneal) 5 days prior to stroke induction. The first cannula was implanted 3 mm dorsal to the right middle cerebral artery for stroke induction. The second cannula was implanted into the left lateral ventricle for drug administration. […]
Compared to models of middle cerebral artery occlusion (MCAO) achieved by surgical exposure of the artery, this model has the advantage of minimal surgical intervention in the brain, and the stroke is induced in the absence of anaesthetics, which can confound the results of drug studies (Callaway et al., 1999; Sharkey et al., 1993). Stroke-induced motor deficit was assessed by counting the number of foot faults made while rats traversed a gradually narrowing ledged beam (McCarthy et al., Stroke 40, 1482-1489, 2009). […] For the neurological score, postural abnormalities were assessed by elevating the rat by the tail above a flat surface and grading the severity of thorax twisting and the angle of forelimb extension. […]

| Compound | Extent of inhibition of ASIC1a currents (full or incomplete) [1] | Reversibility of inhibition (in words) [1] | Rapidly reversible inhibition [1] | IC50 [1] [nM] | % Residual Current [1] [%] | also measured |
| --- | --- | --- | --- | --- | --- | --- |
| CC[C@H](C)[C@@H]1NC(=O)[C@@H](NC(=O)[C@H](CCC(=O)O)NC(=O)[C@H](CC(N)=O)NC(=O)[C@@H](N)CO)CSSC[C@@H]2NC(=O)[C@@H]3CSSC[C@@H](C(=O)N[C@H](C(=O)N4CCC[C@H]4C(=O)N[C@H](C(=O)N4CCC[C@H]4C(=O)O)[C@@H](C)CC)C(C)C)NC(=O)[C@H](C(C)C)NC(=O)[C@H](CCC(=O)O)NC(=O)[C@H](Cc4ccccc4)NC(=O)[C@H](CO)NC(=O)[C@H](Cc4c[nH]cn4)NC(=O)[C@H](CCCNC(=N)N)NC(=O)[C@H](CCCNC(=N)N)NC(=O)[C@H](CCCCN)NC(=O)[C@H](Cc4ccc(O)cc4)NC(=O)[C@H](CSSC[C@H](NC(=O)[C@H](CO)NC(=O)[C@H](CC(C)C)NC(=O)[C@H](Cc4c[nH]c5ccccc45)NC(=O)[C@H](CCCCN)NC(=O)[C@H](CCCNC(=N)N)NC1=O)C(=O)N[C@@H](C(C)C)C(=O)N[C@@H](CC(=O)O)C(=O)N[C@@H](CCCNC(=N)N)C(=O)N[C@@H](CCCCN)C(=O)N[C@@H](CC(N)=O)C(=O)N[C@@H](CC(=O)O)C(=O)N3)NC(=O)[C@H](CCC(=O)O)NC(=O)[C@H](CC(C)C)NC(=O)CNC(=O)[C@H](CCC(=O)O)NC2=O [Hi1a_N] (H-SNECIRKWLSCVDRKNDCCEGLECYKRRHSFEVCVPIP-OH; disulfide 4-19, 11-24, 18-34) | fully inhibit | fully reversible |  |  |  | Fold lower potency than PcTx1 or full-length Hi1a [1]: ~1000 fold |
| Hi1a_C: C-terminal ICK domain of Hi1a expressed separately in E. coli, SEQ ID NO:21 (IPGFCLVKWKQCDGRERDCCAGLECWKRSGNKSSVCAPIT; listed as Hadronyche infensa) |  |  |  |  |  | Effect on current ([1]; at 1 μM): minor potentiation; Inhibition ([1]; at 10 μM): negligible inhibition; Inhibitory effect ([1]; up to 30 μM): no observed inhibitory effect |
| PcTx1 mutant iso 2: Double-mutant PcTx1 analogue (R27A/V32A) that is inactive against ASIC1a (EDCIPKWKGCVNRHGDCCEGLECWKRARSFEACVPKTPKT; ends and bridges not checked; cysteine pairing not given here; UniProt P60514 1-40, looked up, variant R27A V32A) |  |  |  |  |  | Activity against ASIC1a [2]: inactive; Infarct size in cortical (penumbral) and striatal (core) regions [3]: completely ineffective; also recorded: no effect |
| QECIAKWKSCAGRKLDCCEGLECWKRRWGHEVCVPITQKIFCLEKWKSCFERKYDCCEELECWERRGNKHPVCAPKQ (disulfide 3-18, 10-23, 17-33, 42-57, 49-62, 56-73) [Hi1d] | complete |  | Yes |  |  |  |
| SEDCIPKWKGCVNRHGDCCEGLECWKRRRSFEVCVPKTEDCIPKWKGCVNRHGDCCEGLECWKRRRSFEVCVPKTPKT (disulfide 4-19, 11-24, 18-34, 41-56, 48-61, 55-71) [EP 1] | full inhibition | slowly reversible | No | 64 | 0 | Fold increase in IC50 (decrease in potency) relative to wild-type Hi1a [1]: ~200 fold |
| SEDCIPKWKGCVNRHGDCCEGLECWKRRRSFEVCVPKTGDCIPKWKGCVNRHGDCCEGLECWKRRRSFEVCVPKTPKT (disulfide 4-19, 11-24, 18-34, 41-56, 48-61, 55-71) [EP 2] | full inhibition | slowly reversible | No | 215 | 0 | Fold increase in IC50 (decrease in potency) relative to wild-type Hi1a [1]: ~500 fold |
| SEDCIPKWKGCVNRHGDCCEGLECWKRRRSFEVCVPKTPKTIPGFCLVKWKQCDGRERDCCAGLECWKRSGNKSSVCAPIT (disulfide 4-19, 11-24, 18-34, 46-61, 53-66, 60-77) [PcTx1/Hi1a_C] | incomplete inhibition | slowly reversible | No | 1.3 | ~35 | Fold increase in IC50 (decrease in potency) relative to wild-type Hi1a [1]: 3 fold |
| SNECIRKWKSCVDRKNDCCEGLECYKRRHSFEVCVPIPGFCLVKWKQCDGRERDCCAGLECWKRSGNKSSVCAPIT (disulfide 4-19, 11-24, 18-34, 41-56, 48-61, 55-72) [Hi1a L8K] |  |  | No | 0.976 | 30 | Potency compared to wild-type Hi1a (in words) [1]: little effect |
| SNECIRKWLSCVDRKNDCCEGLECWKRRHSFEVCVPIPGFCLVKWKQCDGRERDCCAGLECWKRSGNKSSVCAPIT (disulfide 4-19, 11-24, 18-34, 41-56, 48-61, 55-72) [Hi1a Y24W] | full inhibition |  | No | 0.537 | 0 |  |
| SNECIRKWLSCVDRKNDCCEGLECYKRRHSFEVCVPGGGGGGFCLVKWKQCDGRERDCCAGLECWKRSGNKSSVCAPIT (disulfide 4-19, 11-24, 18-34, 44-59, 51-64, 58-75) [EP 3] |  |  |  | > 4 | 80 | Inhibition of rASIC1a currents ([1]; applied at up to 1 μM): ≤ 20% |
| SNECIRKWLSCVDRKNDCCEGLECYKRRRSFEVCVPIPGFCLVKWKQCDGRERDCCAGLECWKRSGNKSSVCAPIT (disulfide 4-19, 11-24, 18-34, 41-56, 48-61, 55-72) [Hi1a H28R] |  |  | No | 0.115 | 20 | Potency compared to wild-type Hi1a (in words) [1]: slightly increased potency |
